From patent US10214546B2, “Btk inhibitors” (MERCK SHARP & DOHME CORP., priority 2014, dated 2019)
Where two headings read alike, the source gives them in different places.

Tests used:
[1] = target: BTK enzyme (recombinant full-length BTK, hBTK) (Homo sapiens (Human), UniProt Q06187); experiment: BTK enzymatic activity LANCE TR-FRET assay; assay type: biochemical; conditions: 50 pM hBTK, 25 μM ATP, 2 μM biotin-A5-peptide; compound range 1 μM to 0.017 nM; read-out: BTK binding IC50
[2] = system: adenosine uptake into HeLa cells; experiment: [3H]Adenosine uptake assay in HeLa cells; assay type: cell-based; conditions: [3H]adenosine accumulation in HeLa cells, compound range 10 μM to 0.032 nM, read-out: ADU inhibition IC50
Outline: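 IC50 came from a 4-parameter fit of counts per second over a ten-point, 1:3 titration (final 10 µM down to […]). Compound was applied 30 min at ambient temperature in HBSS/5% FBS before a 500 nM [3H]adenosine solution was added; uptake ran 60 min, read by Cytostar-T proximity scintillation.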

Chain of BTK enzyme (recombinant full-length BTK, hBTK) (Q06187 whole entry): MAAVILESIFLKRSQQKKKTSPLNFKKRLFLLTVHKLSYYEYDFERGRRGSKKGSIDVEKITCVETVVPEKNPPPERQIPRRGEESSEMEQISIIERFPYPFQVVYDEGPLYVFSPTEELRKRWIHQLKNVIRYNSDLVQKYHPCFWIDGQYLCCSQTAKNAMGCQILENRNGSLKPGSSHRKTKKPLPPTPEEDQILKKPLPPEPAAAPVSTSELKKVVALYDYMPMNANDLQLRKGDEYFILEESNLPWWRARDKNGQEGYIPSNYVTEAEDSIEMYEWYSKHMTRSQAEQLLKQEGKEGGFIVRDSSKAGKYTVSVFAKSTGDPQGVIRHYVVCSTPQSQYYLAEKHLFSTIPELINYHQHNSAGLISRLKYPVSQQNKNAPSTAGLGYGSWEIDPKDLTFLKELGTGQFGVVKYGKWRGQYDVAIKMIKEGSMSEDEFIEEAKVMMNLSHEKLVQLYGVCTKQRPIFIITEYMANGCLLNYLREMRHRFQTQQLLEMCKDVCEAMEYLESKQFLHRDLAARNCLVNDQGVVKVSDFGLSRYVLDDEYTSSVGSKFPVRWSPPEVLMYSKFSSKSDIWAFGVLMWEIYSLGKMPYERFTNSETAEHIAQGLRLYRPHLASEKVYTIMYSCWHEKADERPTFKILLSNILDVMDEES

Row | IC50 [1] [nM] | IC50 ([2]; Homo sapiens, HeLa) [nM] | IC50 [2] [nM] | Compound
1 | 0.87 | 458 | – | C[C@](O)(c1ccc(-c2nc([C@@H]3CC[C@H]4CCC(=O)N4C3)n3c(Cl)cnc(N)c23)cc1)c1cccc(C2CC2)c1 [Example 116, (6R,8aS)-6-(8-amino-5-chloro-1-{4-[(1S)-1-(3-cyclopropylphenyl)-1-hydroxyethyl]phenyl}imidazo[1,5-a]pyrazin-3-yl)hexahydroindolizin-3(2H)-one]
2 | 0.12 | 956 | – | C[C@@](O)(c1ccc(-c2nc([C@@H]3CC[C@H]4CCC(=O)N4C3)n3c(Cl)cnc(N)c23)cc1)c1cccc(C2CC2)c1 [Example 117, (6R,8aS)-6-(8-amino-5-chloro-1-{4-[(1R)-1-(3-cyclopropylphenyl)-1-hydroxyethyl]phenyl}imidazo[1,5-a]pyrazin-3-yl)hexahydroindolizin-3(2H)-one]
3 | 83.2 | 1490 | – | CN1CC[C@H]2CC[C@H](c3nc(-c4ccc([C@@](C)(O)c5cccc(C(F)(F)F)c5)cc4)c4c(N)nccn34)CN2C1=O [Example 118, (4aR,7S)-7-[8-amino-1-(4-{(1R)-1-hydroxy-1-[3-(trifluoromethyl)phenyl]ethyl}phenyl)imidazo [1,5-a]pyrazin-3-yl]-2-methyloctahydro-1H-pyridol[1,2-c]pyrimidin-1-one]
4 | 33.1 | 2410 | – | CC(C)N1CC(=O)N2C[C@H](c3nc(-c4ccc([C@@](C)(O)c5cccc(C(F)(F)F)c5)cc4)c4c(N)nccn34)CC[C@H]2C1 [Example 119, (7R,9aS)-7-(8-amino-1-(4-{(1R)-1-hydroxy-1-[3-(trifluoromethyl)phenyl]ethyl}phenyl)imidazo [1,5-a]pyrazin-3-yl]-2-(1-methylethyl)octahydro-4H-pyrido[1,2-a]pyrazin-4-one]
5 | 5.1 | 4670 | – | CC(C)N1CC(=O)N2C[C@@H](c3nc(-c4ccc([C@@](C)(O)c5cccc(C(F)(F)F)c5)cc4)c4c(N)nccn34)CC[C@@H]2C1 [Example 120, (7S,9aR)-7-[8-amino-1-(4-{(1R)-1-hydroxy-1-[3-(trifluoromethyl)phenyl]ethyl}phenyl)imidazo [1,5-a]pyrazin-3-yl]-2-(1-methylethyl)octahydro-4H-pyrido[1,2-a]pyrazin-4-one]

More lines, now with the values behind:

Row | Compound | IC50 [1] [nM] | IC50 ([2]; Homo sapiens, HeLa) [nM] | IC50 [2] [nM]
6 | Cc1cc([C@](C)(O)c2cccc(C(F)(F)F)c2)ccc1-c1nc([C@@H]2CC[C@H]3CCC(=O)N3C2)n2ccnc(N)c12 [Example 104, (6R,8aS)-6-[8-amino-1-(4-{(1S)-1-hydroxy-1-[3-(trifluoromethyl)phenyl]ethyl}-2-methylphenyl)imidazo [1,5-a]pyrazin-3-yl]hexahydroindolizin-3(2H)-one] | 10.7 | 1700 | –
7 | CC(O)(c1cccc(C(F)(F)F)c1)c1ccc(-c2nc([C@@H]3CC[C@H]4CCC(=O)N4C3)n3ccnc(N)c23)c(C(F)(F)F)c1 (stereo partly drawn) [Example 105, (6R,8aS)-6-{8-amino-1-[4-{1-hydroxy-1-[3-(trifluoromethyl)phenyl]ethyl}-2-(trifluoromethyl)phenyl]imidazo[1,5-a]pyrazin-3-yl}hexahydroindolizin-3(2H)-one] | 1000 | 861 | –
8 | Nc1nccn2c([C@@H]3CC[C@H]4CCC(=O)N4C3)nc(-c3ccc([C@@](O)(CO)c4cccc(C(F)(F)F)c4)cc3)c12 [Example 106, (6R,8aS)-6-[8-amino-1-(4-{(1S)-1,2-dihydroxy-1-[3-(trifluoromethyl)phenyl]ethyl}phenyl)imidazo [1,5-a]pyrazin-3-yl]hexahydroindolizin-3(2H)-one] | 153 | 6970 | –
9 | Nc1nccn2c([C@@H]3CC[C@H]4CCC(=O)N4C3)nc(-c3ccc([C@](O)(CO)c4cccc(C(F)(F)F)c4)cc3)c12 [Example 107, (6R,8aS)-6-[8-amino-1-(4-{(1R)-1,2-dihydroxy-1-[3-(trifluoromethyl)phenyl]ethyl}phenyl)imidazo [1,5-a]pyrazin-3-yl]hexahydroindolizin-3(2H)-one] | 939 | 530 | –
10 | Nc1nccn2c([C@@H]3CC[C@H]4CCC(=O)N4C3)nc(-c3ccc(C(O)(c4cccc(C(F)(F)F)c4)C(F)F)cc3)c12 (stereo partly drawn) [Example 108, (6R,8aS)-6-[8-amino-1-(4-{2,2-difluoro-1-hydroxy-1-[3-(trifluoromethyl)phenyl]ethyl}phenyl)imidazo [1,5-a]pyrazin-3-yl]hexahydroindolizin-3(2H)-one] | 678 | – | 467
11 | CC(C)(c1cccc([C@@](C)(O)c2ccc(-c3nc([C@@H]4CC[C@H]5CCC(=O)N5C4)n4ccnc(N)c34)cc2)c1)C(F)(F)F [Example 109, (6R,8aS)-6-[8-amino-1-(4-{(1S)-1-hydroxy-1-[3-(2,2,2-trifluoro-1,1-dimethylethyl)phenyl]ethyl}phenyl)imidazo[1,5-a]pyrazin-3-yl]hexahydroindolizin-3(2H)-one] | 44.9 | 892 | –
12 | CC(C)(c1cccc([C@](C)(O)c2ccc(-c3nc([C@@H]4CC[C@H]5CCC(=O)N5C4)n4ccnc(N)c34)cc2)c1)C(F)(F)F [Example 110, (6R,8aS)-6-[8-amino-1-(4-{(1R)-1-hydroxy-1-[3-(2,2,2-trifluoro-1,1-dimethylethyl)phenyl]ethyl}phenyl)imidazo[1,5-a]pyrazin-3-yl]hexahydroindolizin-3(2H)-one] | 0.95 | 1700 | –
13 | C[C@](O)(c1ccc(-c2nc([C@@H]3CC[C@H]4CCC(=O)N4C3)n3ccnc(N)c23)cc1)c1ccc(C(F)(F)F)s1 [Example 111, (6R,8aS)-6-[8-amino-1-(4-{(1S)-1-hydroxy-1-[5-(trifluoromethyl)thiophen-2-yl]ethyl}phenyl)imidazo [1,5-a]pyrazin-3-yl]hexahydroindolizin-3(2H)-one] | 1000 | – | 722
14 | Nc1nccn2c([C@@H]3CC[C@H]4CCC(=O)N4C3)nc(-c3ccc(C(O)(c4cccc(C(F)(F)F)c4)C(F)F)cc3)c12 (stereo partly drawn) [Example 112, (6R,8aS)-6-[8-amino-1-(4-{2,2-difluoro-1-hydroxy-1-[3-(trifluoromethyl)phenyl]ethyl}phenyl)imidazo [1,5-a]pyrazin-3-yl]hexahydroindolizin-3(2H)-one] | 5.6 | – | 1870
15 | C[C@](O)(c1ccc(-c2nc([C@@H]3CC[C@H]4CCC(=O)N4C3)n3ccnc(N)c23)cc1)c1ccc(C(F)(F)F)s1 [Example 113, (6R,8aS)-6-[8-amino-1-(4-{(1S)-1-hydroxy-1-[5-(trifluoromethyl)thiophen-2-yl]ethyl}phenyl)imidazo [1,5-a]pyrazin-3-yl]hexahydroindolizin-3(2H)-one] | 30.9 | – | 2140
16 | CN1CC[C@@H]2CC[C@@H](c3nc(-c4ccc([C@@](C)(O)c5cccc(C(F)(F)F)c5)cc4)c4c(N)nccn34)CN2C1=O [Example 114, (4aS,7R)-7-[8-amino-1-(4-{(1R)-1-hydroxy-1-[3-(trifluoromethyl)phenyl]ethyl}phenyl)imidazo [1,5-a]pyrazin-3-yl]-2-methyloctahydro-1H-pyrido[1,2-c]pyrimidin-1-one] | 0.22 | 888 | –
17 | CN1CC[C@@H]2CC[C@@H](c3nc(-c4ccc([C@](C)(O)c5cccc(C(F)(F)F)c5)cc4)c4c(N)nccn34)CN2C1=O [Example 115, (4aS,7R)-7-[8-amino-1-(4-{(1S)-1-hydroxy-1-[3-(trifluoromethyl)phenyl]ethyl}phenyl)imidazo [1,5-a]pyrazin-3-yl]-2-methyloctahydro-1H-pyrido[1,2-c]pyrimidin-1-one] | 51.9 | 172 | –
